Experiments:
Assay type in all cases: biochemical
Details in all cases: 1 μM inhibitor concentration
NUAK1 = NUAK1 (Homo sapiens (Human), UniProt O60285); test: NUAK1 kinase selectivity assay
Procedure: NUAK1 (5-20 mU diluted in 50 mM Tris pH 7.5, 0.1 mM EGTA, 0.1% 0-mercaptoethanol, 1 mg/ml BSA) is assayed against […] in a final volume of 25.5 μl containing 50 mM Tris pH 7.5, 0.1 mM EGTA, 0.3 mM […], 10 mM magnesium acetate and 0.02 mM [33P-γ-ATP] (50-1000 cpm/pmole) and incubated for 30 min at room temperature. Assays are stopped by addition of 5 μl of 0.5 M (3%) orthophosphoric acid and then harvested onto P81 Unifilter plates with a wash buffer of 50 mM orthophosphoric acid.

RSK2 = RSK2 (Homo sapiens (Human), UniProt P51812); test: RSK2 kinase selectivity assay
Procedure: MAPKAP-K1b (5-20 mU diluted in 20 mM MOPS pH 7.5, 1 mM EDTA, 0.01% Brij35, 5% glycerol, 0.1% b-mercaptoethanol, 1 mg/ml BSA) is assayed against substrate peptide ([…]) in a final volume of […] containing 50 mM Na-b-glycerophosphate (pH 7.5), 0.5 mM EDTA, 30 μM substrate peptide, 10 mM magnesium acetate and 0.05 mM [33P-g-ATP] (50-1000 cpm/pmole) and incubated for 30 min at room temperature. Assays are stopped by addition of 5 μl of 0.5 M (3%) orthophosphoric acid and then harvested onto P81 Unifilter plates with a wash buffer of 50 mM orthophosphoric acid.

PKBa = PKBa (Homo sapiens (Human), UniProt P31749, S473D); test: PKBa kinase selectivity assay
Procedure: ΔPH-PKBa-S473D (5-20 mU diluted in 50 mM Tris pH 7.5, 0.1 mM EGTA, 0.1% b-mercaptoethanol, 1 mg/ml BSA) is assayed against a modified Crosstide peptide […] in a final volume of 25.5 μl containing 50 mM Tris pH 7.5, 0.05% b-mercaptoethanol, 30 μM substrate peptide, 10 mM magnesium acetate and 0.005 mM [33P-g-ATP](50-1000 cpm/pmole) and incubated for 30 min at room temperature. Assays are stopped by addition of 5 μl of 0.5 M (3%) orthophosphoric acid and then harvested onto P81 Unifilter plates with a wash buffer of 50 mM orthophosphoric acid.

MLK1 = MLK1 (Homo sapiens (Human), UniProt P80192); test: MLK1 kinase selectivity assay
Procedure: (§1) MLK1 (5-20 mU diluted in 50 mM Tris pH 7.5, 0.1 mM EGTA, 0.1% 0-mercaptoethanol, 1 mg/ml BSA) is assayed against MBP in a final volume of 25.5 μl containing 50 mM Tris pH 7.5, 0.1 mM EGTA, 0.33 mg/ml MBP, 10 mM magnesium acetate and 0.02 mM [33P-γ-ATP] (50-1000 cpm/pmole) and incubated for 30 min at room temperature. Assays are stopped by addition of 5 μl of 0.5 M (3%) orthophosphoric acid and then harvested onto P81 Unifilter plates with a wash buffer of 50 mM orthophosphoric acid.

IKKb = IKKb (Homo sapiens (Human), UniProt O14920); test: IKKb kinase selectivity assay
Procedure: 5-20 mU of IKKb (diluted in 50 mM Tris (pH 7.5), 0.1 mM EGTA, 1 mg/ml BSA, 0.1%, b-Mercaptoethanol) is assayed against substrate peptide ([…]) in a final volume of […] containing 50 mM Tris (pH 7.5), 0.1 mM EGTA, 0.1%, b-Mercaptoethanol, 300 μM substrate peptide, 10 mM magnesium acetate and 0.005 mM [33P-g-ATP](500-1000 cpm/pmole) and incubated for 30 mins at room temperature. Assays are stopped by addition of 5 μl of 0.5M (3%) orthophosphoric acid. Assays are harvested onto P81 Unifilter plates using a wash buffer of 50 mM orthophosphoric acid.

MKK1 = MKK1 (Homo sapiens (Human), UniProt Q02750); test: MKK1 kinase selectivity assay
Procedure: After incubating at room temperature for 30 min, 5 μl from the first reaction is pipetted into 20 μl of the second reaction mix containing (final concentration) 25 mM Tris pH 7.5, 0.1 mM EGTA, 0.1 mM Na3VO4, 0.66 mg/ml myelin basic protein (MBP), 10 mM magnesium acetate and 0.05 mM [33P-g-ATP] (500-1000 cpm/pmole) and incubated for 30 min at room temperature. Assays are stopped by addition of 5 μl of 0.5 M (3%) orthophosphoric acid and then harvested onto P81 Unifilter plates with a wash buffer of 50 mM orthophosphoric acid.

PKCz = PKCz (Homo sapiens (Human), UniProt Q05513); test: PKCz kinase selectivity assay
Procedure: PKC zeta (5-20 mU diluted in 50 mM Tris pH 7.5, 0.1 mM EGTA, 0.1% b-mercaptoethanol, 1 mg/ml BSA, 100 μM Vanadate) is assayed against a substrate peptide ([…]) in a final volume of 25.5 μl containing 50 mM Tris pH 7.5, 0.05% b-mercaptoethanol, […], 300 μM substrate peptide, 10 mM magnesium acetate and 0.005 mM [33P-g-ATP] (50-1000 cpm/pmole) and incubated for 30 min at room temperature. Assays are stopped by addition of 5 μl of 0.5 M (3%) orthophosphoric acid and then harvested onto P81 Unifilter plates with a wash buffer of 50 mM orthophosphoric acid.

RIPK2 = RIPK2 (Homo sapiens (Human), UniProt O43353); test: RIPK2 kinase selectivity assay
Procedure: as §1, with “RIPK2” for “MLK1”, “β-mercaptoethanol,” for “0-mercaptoethanol,”, “[…]” for “25.5”

Chain of RSK2 (P51812 whole entry, species assumed): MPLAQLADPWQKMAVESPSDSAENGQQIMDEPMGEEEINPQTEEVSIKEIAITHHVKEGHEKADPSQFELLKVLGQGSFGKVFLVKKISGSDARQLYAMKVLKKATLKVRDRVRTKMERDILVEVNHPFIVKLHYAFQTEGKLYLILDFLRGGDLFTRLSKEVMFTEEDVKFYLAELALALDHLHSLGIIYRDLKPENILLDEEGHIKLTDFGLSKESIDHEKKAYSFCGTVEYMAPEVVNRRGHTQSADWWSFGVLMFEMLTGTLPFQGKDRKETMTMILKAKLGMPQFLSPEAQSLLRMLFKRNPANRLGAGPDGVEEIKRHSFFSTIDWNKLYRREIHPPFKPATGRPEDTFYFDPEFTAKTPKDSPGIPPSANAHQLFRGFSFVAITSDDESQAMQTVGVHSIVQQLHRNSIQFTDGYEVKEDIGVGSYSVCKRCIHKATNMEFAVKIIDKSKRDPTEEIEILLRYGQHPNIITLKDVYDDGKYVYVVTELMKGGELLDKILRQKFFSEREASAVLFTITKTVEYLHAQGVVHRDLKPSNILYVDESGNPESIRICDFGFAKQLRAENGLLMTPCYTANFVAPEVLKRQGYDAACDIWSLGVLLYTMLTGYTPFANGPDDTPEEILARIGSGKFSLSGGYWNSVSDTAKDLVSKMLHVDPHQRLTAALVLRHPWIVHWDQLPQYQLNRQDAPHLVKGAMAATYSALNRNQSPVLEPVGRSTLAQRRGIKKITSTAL
Chain of NUAK1 (O60285 whole entry, species assumed): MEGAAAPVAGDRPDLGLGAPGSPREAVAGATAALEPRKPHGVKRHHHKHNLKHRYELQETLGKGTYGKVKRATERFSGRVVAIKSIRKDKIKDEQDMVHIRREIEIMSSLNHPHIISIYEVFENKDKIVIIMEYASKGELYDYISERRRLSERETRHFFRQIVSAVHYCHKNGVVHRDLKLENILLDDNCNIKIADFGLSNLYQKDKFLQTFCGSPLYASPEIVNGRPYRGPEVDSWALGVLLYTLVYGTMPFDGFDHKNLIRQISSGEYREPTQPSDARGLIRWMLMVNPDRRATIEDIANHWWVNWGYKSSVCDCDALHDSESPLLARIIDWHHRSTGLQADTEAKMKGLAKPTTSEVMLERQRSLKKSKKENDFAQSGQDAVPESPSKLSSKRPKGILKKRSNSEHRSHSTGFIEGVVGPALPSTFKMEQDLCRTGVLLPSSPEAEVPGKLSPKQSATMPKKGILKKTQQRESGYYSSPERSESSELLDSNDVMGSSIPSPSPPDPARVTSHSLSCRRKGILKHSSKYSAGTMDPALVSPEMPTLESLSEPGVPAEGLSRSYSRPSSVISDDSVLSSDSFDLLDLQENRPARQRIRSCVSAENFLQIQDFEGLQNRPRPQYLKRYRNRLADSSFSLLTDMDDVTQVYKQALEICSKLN
Chain of PKCz (Q05513 whole entry): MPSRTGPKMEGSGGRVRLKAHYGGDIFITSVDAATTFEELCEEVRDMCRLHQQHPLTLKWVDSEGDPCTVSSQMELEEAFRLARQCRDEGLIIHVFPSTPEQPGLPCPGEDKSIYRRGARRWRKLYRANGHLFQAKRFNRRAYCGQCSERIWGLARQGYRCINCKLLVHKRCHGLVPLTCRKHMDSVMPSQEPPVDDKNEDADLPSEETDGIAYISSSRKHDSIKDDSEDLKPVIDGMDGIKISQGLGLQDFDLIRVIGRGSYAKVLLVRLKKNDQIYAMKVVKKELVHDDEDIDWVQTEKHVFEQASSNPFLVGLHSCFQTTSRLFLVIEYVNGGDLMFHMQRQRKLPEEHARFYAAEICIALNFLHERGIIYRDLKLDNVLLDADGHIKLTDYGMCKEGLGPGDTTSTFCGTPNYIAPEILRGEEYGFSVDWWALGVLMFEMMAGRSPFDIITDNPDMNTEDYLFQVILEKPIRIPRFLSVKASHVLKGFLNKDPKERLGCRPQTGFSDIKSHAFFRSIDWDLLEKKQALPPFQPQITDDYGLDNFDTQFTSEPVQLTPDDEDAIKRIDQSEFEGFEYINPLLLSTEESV
Chain of IKKb (O14920 whole entry, species assumed): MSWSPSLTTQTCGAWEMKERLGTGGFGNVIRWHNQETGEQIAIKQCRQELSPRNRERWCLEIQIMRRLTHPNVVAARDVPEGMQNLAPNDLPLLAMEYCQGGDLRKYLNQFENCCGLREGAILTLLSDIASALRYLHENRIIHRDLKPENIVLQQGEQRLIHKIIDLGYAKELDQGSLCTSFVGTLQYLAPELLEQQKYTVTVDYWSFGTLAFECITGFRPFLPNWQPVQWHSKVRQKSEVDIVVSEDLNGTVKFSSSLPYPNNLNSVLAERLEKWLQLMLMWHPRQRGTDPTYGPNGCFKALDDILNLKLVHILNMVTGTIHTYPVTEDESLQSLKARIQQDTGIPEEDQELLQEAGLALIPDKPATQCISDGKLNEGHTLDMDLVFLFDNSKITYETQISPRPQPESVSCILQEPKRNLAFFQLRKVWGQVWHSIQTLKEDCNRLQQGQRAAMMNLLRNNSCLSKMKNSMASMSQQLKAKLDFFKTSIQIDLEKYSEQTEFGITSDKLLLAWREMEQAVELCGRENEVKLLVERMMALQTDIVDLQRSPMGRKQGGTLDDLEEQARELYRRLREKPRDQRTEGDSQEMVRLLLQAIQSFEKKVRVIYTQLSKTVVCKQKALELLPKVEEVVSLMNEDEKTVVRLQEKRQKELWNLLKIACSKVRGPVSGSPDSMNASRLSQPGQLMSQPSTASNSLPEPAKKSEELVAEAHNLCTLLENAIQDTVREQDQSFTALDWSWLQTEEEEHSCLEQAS
Chain of MLK1 (P80192 whole entry, species assumed): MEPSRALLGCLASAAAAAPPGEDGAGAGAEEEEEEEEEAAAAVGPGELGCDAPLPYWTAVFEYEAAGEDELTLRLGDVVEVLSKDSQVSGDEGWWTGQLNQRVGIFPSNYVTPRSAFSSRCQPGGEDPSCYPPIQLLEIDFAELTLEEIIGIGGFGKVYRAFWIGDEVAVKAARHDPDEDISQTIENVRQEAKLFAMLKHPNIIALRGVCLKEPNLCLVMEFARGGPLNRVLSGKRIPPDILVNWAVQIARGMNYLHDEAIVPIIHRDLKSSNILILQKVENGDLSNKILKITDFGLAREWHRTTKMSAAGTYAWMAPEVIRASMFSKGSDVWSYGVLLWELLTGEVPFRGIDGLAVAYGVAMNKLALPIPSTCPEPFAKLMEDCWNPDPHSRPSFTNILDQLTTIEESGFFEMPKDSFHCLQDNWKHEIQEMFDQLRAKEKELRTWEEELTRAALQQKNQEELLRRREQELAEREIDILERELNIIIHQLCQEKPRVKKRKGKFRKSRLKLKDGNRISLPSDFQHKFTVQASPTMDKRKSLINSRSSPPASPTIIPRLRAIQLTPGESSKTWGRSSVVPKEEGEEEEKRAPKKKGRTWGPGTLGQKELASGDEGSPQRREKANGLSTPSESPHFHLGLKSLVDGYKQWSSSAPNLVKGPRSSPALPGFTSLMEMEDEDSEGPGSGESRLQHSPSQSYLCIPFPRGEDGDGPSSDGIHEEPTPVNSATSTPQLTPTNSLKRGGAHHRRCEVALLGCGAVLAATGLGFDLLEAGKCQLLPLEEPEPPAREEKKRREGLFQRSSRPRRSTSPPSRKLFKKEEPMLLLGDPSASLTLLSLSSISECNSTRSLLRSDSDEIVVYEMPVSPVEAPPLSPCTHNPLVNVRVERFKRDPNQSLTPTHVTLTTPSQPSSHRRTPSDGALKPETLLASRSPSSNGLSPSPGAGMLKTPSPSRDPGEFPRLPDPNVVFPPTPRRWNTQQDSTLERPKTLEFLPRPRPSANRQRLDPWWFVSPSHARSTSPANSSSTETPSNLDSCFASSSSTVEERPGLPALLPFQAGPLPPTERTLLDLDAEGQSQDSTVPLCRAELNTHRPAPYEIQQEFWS
Chain of RIPK2 (O43353 whole entry, species assumed): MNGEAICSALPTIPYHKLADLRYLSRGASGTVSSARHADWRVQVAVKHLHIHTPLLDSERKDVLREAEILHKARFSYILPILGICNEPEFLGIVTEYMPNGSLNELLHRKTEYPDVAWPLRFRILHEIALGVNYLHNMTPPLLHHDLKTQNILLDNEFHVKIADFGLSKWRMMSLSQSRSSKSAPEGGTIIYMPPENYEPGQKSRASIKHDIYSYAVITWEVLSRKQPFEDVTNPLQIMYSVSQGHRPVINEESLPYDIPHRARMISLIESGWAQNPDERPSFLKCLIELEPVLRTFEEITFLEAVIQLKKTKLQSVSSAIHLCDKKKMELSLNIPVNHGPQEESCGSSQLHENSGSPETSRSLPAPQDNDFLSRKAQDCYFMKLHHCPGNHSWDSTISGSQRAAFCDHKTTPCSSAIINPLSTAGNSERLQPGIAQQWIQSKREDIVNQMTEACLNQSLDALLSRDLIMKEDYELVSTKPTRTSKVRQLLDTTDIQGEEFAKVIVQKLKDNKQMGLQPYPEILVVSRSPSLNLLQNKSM
Chain of PKBa (P31749 118-480 S473D): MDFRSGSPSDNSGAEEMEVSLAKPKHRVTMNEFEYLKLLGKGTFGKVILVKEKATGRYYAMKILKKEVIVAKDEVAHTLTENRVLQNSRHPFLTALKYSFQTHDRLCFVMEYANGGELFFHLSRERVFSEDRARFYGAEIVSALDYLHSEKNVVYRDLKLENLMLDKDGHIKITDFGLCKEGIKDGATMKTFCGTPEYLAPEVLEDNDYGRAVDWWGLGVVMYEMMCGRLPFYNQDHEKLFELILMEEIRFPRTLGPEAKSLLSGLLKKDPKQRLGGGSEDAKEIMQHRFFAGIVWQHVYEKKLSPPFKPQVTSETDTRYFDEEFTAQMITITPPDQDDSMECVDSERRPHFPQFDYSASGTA

SMILES	percentage inhibition of NUAK1 (NUAK1)	percentage inhibition of RSK2 (RSK2)	percentage inhibition of PKBa (PKBa)	percentage inhibition of MLK1 (MLK1)	percentage inhibition of IKKb (IKKb)	percentage inhibition of MKK1 (MKK1)	percentage inhibition of PKCz (PKCz)	percentage inhibition of RIPK2 (RIPK2)
c1cc2[nH]nc3c2c(n1)N(C1CCOCC1)CCC3 [Example 29, 6-(tetrahydro-2H-pyran-4-yl)-6,7,8,9-tetrahydro-2H-1,2,5,6-tetraazabenzo[cd]azulene]	7 percentage	0 percentage	0 percentage	0 percentage	0 percentage	21 percentage	0 percentage	0 percentage
CN1CCC(N2Cc3ccccc3-c3n[nH]c4ccnc2c34)CC1 [Example 55]	76 percentage	21 percentage	1 percentage	24 percentage	6 percentage	65 percentage	0 percentage	7 percentage
c1cc2[nH]nc3c2c(n1)N(C1CCCC1)CCC3 [Example 23, 6-cyclopentyl-6,7,8,9-tetrahydro-2H-1,2,5,6-tetraazabenzo[cd]azulene]	17 percentage	5 percentage	0 percentage	0 percentage	0 percentage	0 percentage	0 percentage	0 percentage
CC(C)n1ncc2c1CN(C1CCN(C)CC1)c1nccc3[nH]nc-2c13 [Example 68]	65 percentage	54 percentage	0 percentage	12 percentage	4 percentage	31 percentage	1 percentage	0 percentage
c1cc2[nH]nc3c2c(n1)N(C1CCC1)CCC3 [Example 22, 6-cyclobutyl-6,7,8,9-tetrahydro-2H-1,2,5,6-tetraazabenzo[cd]azulene]	8 percentage	8 percentage	3 percentage	0 percentage	2 percentage	15 percentage	0 percentage	0 percentage

Source: patent US10918645B2 (LIFEARC, priority 2016, dated 2021)
